The subject of data set [1] is primary human glioblastoma multiforme (GBM) cells. As to the kind of experiment: Neurosphere growth of primary human GBM cells. The class given is cell-based. The following applies: GBM cells grown in vitro on 3D neurospheres. An excerpt:
Data are expressed as mean±SEM and represent at least two independent experiments with sample replicates.

Data set [2] relates to hyperproliferative PKD cells (cloned polycystic kidney tissue cells). As to the kind of experiment: Concentration-response in primary cultures cloned from cystic kidney tissue. The format is cell-based. The following applies: 72 hour treatment; for IC50 / Max inhibition: hyperproliferative PKD cells. How it is done: (§1) The concentration-response effects of Compound DBM 228, Compound DBM 308, Compound DBM 101, and Compound DBM 328 were determined in primary cultures derived as ‘clones’ from cystic versus non-cystic kidney tissue. CRC graphs, IC50 values, and the percent maximum inhibition versus lowest doses without effect were calculated with GraphPad Prism software. […] There was also a marked separation in effect between hyperproliferative PKD cells (FIG. 5A and Table 3) and WT cells (FIG. 5B and Table 4).

Data set [3] has as its system WT cells (cloned non-cystic kidney tissue cells). As to the kind of experiment: Concentration-response in primary cultures cloned from non-cystic kidney tissue. The class given is cell-based. The note with it: 72 hour treatment. How it is done:
as §1

The subject of data set [4] is human cystic ADPKD and non-cystic renal epithelial cells. Nature of the data set: Proliferating versus confluent cystic ADPKD and normal renal cells. The format is cell-based. How it is done:
The compounds described herein are effective for inhibiting cellular proliferation in hyperproliferative cell types. To study the effects of these compounds, an assay was developed to differentiate the effects of the compounds on proliferating versus confluent cells. The assay design generates a proliferating density 24 hours after seeding and provides a 3-day active cell growth/doubling window in which to gauge the anti-proliferative effect of the compounds described herein. […] In this 3-day growth window, cell number increases with daily doublings across the 72-hour period (see FIG. 1).
In each assay design, compounds were added at the 24-hour timepoint after cell seeding. The effect of the compounds, relative to vehicle control and to VelCade (a proteasome inhibitor approved in the U.S. for treating relapsed multiple myeloma and mantle cell lymphoma) as a positive control, was assessed across the 3-day growth window for proliferating cells and on an already near confluent culture of cells for the same time period. […]
Cell number at the end of the assay was determined using the CELLTITER-GLO Luminescent Cell Viability Assay (Promega; Madison, Wis.). The CELLTITER-GLO Luminescent Cell Viability Assay is a homogeneous method of determining the number of viable cells in culture based on quantitation of the ATP present, an indicator of metabolically active cells. […]

Data set [5] concerns myeloma cells. The format is cell-based. The following applies: for efficacy and potency (FIG. 4) / GI50 / TGI: myeloma cells; for GI50 / TGI: 48 h drug exposure. How it is done: For a typical screening experiment to identify the compounds, cells were seeded into 96- or 384-well microtiter plates at plating densities pre-determined for each cell line to ensure drug exposure occurs during the proliferative phase well before confluency is reached. After seeding, cells were incubated for 24 h prior to addition of experimental drugs. After 24 h, a test plate was assayed (CellTiterGlo—measurement of cytosolic ATP) to determine a baseline measurement of the cell population for each cell line at the time of drug addition. Experimental drugs were then added and cells were cultured for a 48 h drug exposure window. […] Values were calculated for each of these three parameters if the level of activity was reached; however, if the effect was not reached or was exceeded, the value for that parameter was expressed as greater or less than the maximum or minimum concentration tested.

In data set [6] the test system is tubulin. Nature of the data set: Biochemical tubulin polymerization. The following applies: FIG. 11C. How it is done: Following 24 hours of treatment with Compound DBM 228, Compound DBM 318, and Compound DBM 328, caspase 3/7 activation in U251MG cells was determined. The detection of caspase 3/7 activation in U251MG cells indicates activation of apoptosis. Tubulin polymerization was determined for Compounds DBM 227, DBM 228, DBM 308, DBM 318, DBM 701, DBM 707, DBM 715, paclitaxel, vincristine, and negative control Compound DBM 328. […] Paclitaxel served as polymerization enhancer control and vincristine served as polymerization inhibitor control.

Data set [7] has as its system primary human idiopathic pulmonary fibrosis (IPF) myofibroblasts. As to the kind of experiment: Growth of primary human IPF myofibroblasts in vitro. The following applies: CRC. The format is cell-based.
Data set [8] deals with NCI/ADR-RES. The note with it: for potency in multi-drug resistant line, in words (FIG. 9): NCI-ADR/RES versus drug-responsive cells. An excerpt:
TGI means the drug concentration resulting in total growth inhibition or “cytostasis.” LC50 is the concentration of drug resulting in a 50% reduction in the measured cytosolic ATP at the end of the drug treatment as compared to that at the beginning, indicating a net loss of cells following treatment (cytotoxicity).
A major limitation with the anti-mitotic drugs in particular and in conventional chemotherapeutics in general, is their susceptibility to cellular mechanisms of adaptive/intrinsic multi-drug resistance (i.e., MDR efflux pumps such as p-glycoprotein, MRP1).

For data set [9], the system named is NCI-60 cell panel. As to the kind of experiment: NCI-60 cell panel, whole panel. The format is cell-based, human. The note with it: average in the NCI-60 cell panel.

As to `Cn1nnc2c(C(N)=O)ncn2c1=O` [TMZ, temozolomide, reference compound], the “concentration giving equivalent cytotoxic effect” value in data set [1] came to 500 µM.
In the case of `COc1ccccc1Nc1nc(-c2cc3cccc(OC)c3oc2=O)cs1` [Compound DBM 101], the IC50 in data set [2] was 7200 nM; in data set [3] it was more than 100000 nM. Besides, the Max inhibition is on record as 77% in data set [2] and 48% in data set [3]. The “effect, in words” value in data set [4] (confluent diseased cells and proliferating and confluent normal cells) was “only partially affected and at mid-micromolar doses”. Also, the “cytostatic effects, in words” value in data set [4] (proliferating cystic ADPKD cells) is on record as “selective for hyperproliferative ‘diseased’ cells at potent nanomolar doses”.
As for `COc1ccccc1Nc1nc(-c2cc3cccc(C)c3oc2=O)cs1` [Compound DBM 707], in data set [5], the midpoint of cytotoxicity, the CC50, lay at 544 nM; the “efficacy and potency (FIG. 4)” value was “significant efficacy and potency”; it took 131 nM to inhibit growth by half (GI50); the TGI (in general, the concentration at which net growth stops) was determined as 183 nM. In [6], the “effect on biochemical tubulin polymerization, in words” value is recorded as “modestly inhibited”.
For the compound `COc1ccccc1Nc1nc(-c2cc3cccc(Br)c3oc2=O)cs1` [Compound DBM 318], in [5], the CC50 (usually the concentration that lowers cell viability or growth by half) worked out at 226 nM; the “efficacy and potency (FIG. 4)” value was “significant efficacy and potency”; halving of growth (GI50) required 133 nM; the TGI turned out to be 164 nM. In addition, the “effect on biochemical tubulin polymerization, in words” value in data set [6] is “modestly inhibited”.
In the case of `COc1ccccc1Nc1nc(-c2cc3cccc(C(=O)O)c3oc2=O)cs1` [Compound DBM 328], in data set [5], the CC50 is more than 4000 nM; the GI50 (in general, the concentration that inhibits growth by half) was 2110 nM; the TGI is on record as >4,000 nM. Besides, in data set [2], the IC50 came to 78000 nM and the Max inhibition was 48%. For the same compound, in data set [3], the IC50 is more than 100000 nM and the Max inhibition is 28%. Moreover, in data set [7], the “anti-proliferative effect, in words” value was “without effect throughout the CRC”. Besides, the “effect on biochemical tubulin polymerization, in words” value in [6] is reported as “also inhibited microtubule polymerization”.
As for `CC[C@]1(O)C[C@H]2CN(CCc3c([nH]c4ccccc34)[C@@](C(=O)OC)(c3cc4c(cc3OC)N(C=O)[C@H]3[C@@](O)(C(=O)OC)[C@H](OC(C)=O)[C@]5(CC)C=CCN6CC[C@]43[C@@H]65)C2)C1` [vincristine, reference compound], the “potency in multi-drug resistant line, in words (FIG. 9)” value in data set [8] was “significantly right-shifted”.
Regarding `COc1ccccc1Nc1nc(-c2cc3cccc(Cl)c3oc2=O)cs1` [Compound DBM 308], in [5], the CC50 was more than 4000 nM; the “efficacy and potency (FIG. 4)” value is “significant efficacy and potency”; the GI50 stood at 166 nM; the TGI was 247 nM. Moreover, in data set [2], the “cytostatic effect, in words” value is “potent and effective analog”; the IC50 is 540 nM; the Max inhibition was found to be 84%. In data set [3], this compound came in with an IC50 of more than 100000 nM and a Max inhibition of 52%. Besides, in data set [1], the “concentration giving equivalent cytotoxic effect” value amounted to 3 µM; the “cytostatic effect, in words” value is on record as “cytostatic effect at nanomolar doses”; the “effect on neurosphere growth, in words” value was “dose-dependent growth arrest to cytotoxic effect”. The “effect on biochemical tubulin polymerization, in words” value in data set [6] was “modestly inhibited”.
Take `CC(=O)O[C@H]1C(=O)[C@@]2(C)[C@H]([C@H](OC(=O)c3ccccc3)[C@]3(O)C[C@H](OC(=O)[C@H](O)[C@@H](NC(=O)c4ccccc4)c4ccccc4)C(C)=C1C3(C)C)[C@]1(OC(C)=O)CO[C@@H]1C[C@@H]2O` [paclitaxel, reference compound]: the “potency in multi-drug resistant line, in words (FIG. 9)” value in [8] was “significantly right-shifted”.
Consider `COc1ccccc1Nc1nc(-c2cc3cccc([N+](=O)[O-])c3oc2=O)cs1` [Compound DBM 227], for which, in data set [8] (read-out: potency in the NCI-ADR/RES cell line, multi-drug resistant NCI-ADR/RES), the IC50 stood at 100 nM. In data set [9], this compound showed a GI50 of 250 nM. In data set [5], the CC50 was more than 4000 nM, it took 137 nM to inhibit growth by half (GI50) and the TGI came out at 404 nM. In addition, the “effect on biochemical tubulin polymerization, in words” value in data set [6] is given as “modestly inhibited”.
For `COc1ccccc1Nc1nc(-c2cc3ccc(N)c([N+](=O)[O-])c3oc2=O)cs1` [Compound DBM 715], in [5], the “efficacy and potency (FIG. 4)” value was “significant efficacy and potency”. In addition, the “effect on biochemical tubulin polymerization, in words” value in data set [6] is “modestly inhibited”.

Source of the values: US10369145B2, “Coumarin derivatives and methods of use in treating hyperproliferative diseases” (DISCOVERYBIOMED, INC., priority 2013, dated 2019).
